# Data reported in the supplement of paper PMC10307832.
# What was measured:
# Assay in all cases: relative viability (nuclei count vs DMSO), 5 days (fraction); higher = more cells survive
# 201T = system: 201T
# How it was run: (§1)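 Lung cancer cell lines in 1536-well plates got either a single drug or a fixed anchor-drug dose together with five library-drug doses (not always all listed) in √10 steps, by pin tool, on the day after seeding. Nuclei were counted after 5 days, and relative viability is the treated-to-vehicle ratio of nuclei counts. Values are medians of duplicate plates.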
# COR-L23 = system: COR-L23
# How it was run: as §1
# H3255 = system: H3255
# How it was run: as §1
# HARA = system: HARA
# How it was run: as §1
# HCC-366 = system: HCC-366
# How it was run: as §1
# HCC-78 = system: HCC-78
# How it was run: as §1
# LU99A = system: LU99A
# How it was run: as §1
# NCI-H1650 = system: NCI-H1650
# How it was run: as §1
# NCI-H1651 = system: NCI-H1651
# How it was run: as §1
# NCI-H1755 = system: NCI-H1755
# How it was run: as §1
# NCI-H1793 = system: NCI-H1793
# How it was run: as §1
# NCI-H2085 = system: NCI-H2085
# How it was run: as §1
# NCI-H2087 = system: NCI-H2087
# How it was run: as §1
# NCI-H23 = system: NCI-H23
# How it was run: as §1
# NCI-H3122 = system: NCI-H3122
# How it was run: as §1
# NCI-H322M = system: NCI-H322M
# How it was run: as §1
# NCI-H358 = system: NCI-H358
# How it was run: as §1
# NCI-H460 = system: NCI-H460
# How it was run: as §1
# NCI-H596 = system: NCI-H596
# How it was run: as §1
# NCI-H650 = system: NCI-H650
# How it was run: as §1
# PC-3 [JPC-3] = system: PC-3 [JPC-3]
# How it was run: as §1
# SK-LU-1 = system: SK-LU-1
# How it was run: as §1
structure (smiles),measurement,setting,value
CN1CCN(CCOc2cc(OC3CCOCC3)c3c(Nc4c(Cl)ccc5c4OCO5)ncnc3c2)CC1 [Saracatinib] + COc1cc2c(Oc3ccc(NC(=O)C4(C(=O)Nc5ccc(F)cc5)CC4)cc3F)ccnc2cc1OCCCN1CCOCC1 [Foretinib] (partner 0.25 µM),relative viability,201T; first compound 0.02 µM,1.16
same,relative viability,201T; first compound 0.2 µM,0.752
same,relative viability,201T; first compound 0.6325 µM,1
same,relative viability,201T; first compound 2 µM,0.693
same,relative viability,COR-L23; first compound 0.02 µM,0.905
same,relative viability,COR-L23; first compound 0.2 µM,0.917
same,relative viability,COR-L23; first compound 0.6325 µM,0.87
same,relative viability,COR-L23; first compound 2 µM,0.886
same,relative viability,H3255; first compound 0.02 µM,0.97
same,relative viability,H3255; first compound 0.2 µM,0.749
same,relative viability,H3255; first compound 0.6325 µM,0.987
same,relative viability,H3255; first compound 2 µM,0.3
same,relative viability,HARA; first compound 0.02 µM,0.873
same,relative viability,HARA; first compound 0.2 µM,0.751
same,relative viability,HARA; first compound 0.6325 µM,0.739
same,relative viability,HARA; first compound 2 µM,0.368
same,relative viability,HCC-366; first compound 0.02 µM,0.896
same,relative viability,HCC-366; first compound 0.6325 µM,0.844
same,relative viability,HCC-366; first compound 2 µM,0.531
same,relative viability,HCC-78; first compound 0.02 µM,0.534
same,relative viability,HCC-78; first compound 0.6325 µM,0.678
same,relative viability,HCC-78; first compound 2 µM,0.413
same,relative viability,LU99A; first compound 0.02 µM,0.811
same,relative viability,LU99A; first compound 0.2 µM,0.562
same,relative viability,LU99A; first compound 0.6325 µM,0.831
same,relative viability,LU99A; first compound 2 µM,0.536
same,relative viability,NCI-H1650; first compound 0.02 µM,0.948
same,relative viability,NCI-H1650; first compound 0.2 µM,0.775
same,relative viability,NCI-H1650; first compound 0.6325 µM,0.46
same,relative viability,NCI-H1650; first compound 2 µM,0.456
same,relative viability,NCI-H1651; first compound 0.02 µM,0.844
same,relative viability,NCI-H1651; first compound 0.2 µM,0.561
same,relative viability,NCI-H1651; first compound 0.6325 µM,0.908
same,relative viability,NCI-H1651; first compound 2 µM,0.657
same,relative viability,NCI-H1755; first compound 0.02 µM,0.936
same,relative viability,NCI-H1755; first compound 0.2 µM,0.849
same,relative viability,NCI-H1755; first compound 0.6325 µM,0.821
same,relative viability,NCI-H1755; first compound 2 µM,0.792
same,relative viability,NCI-H1793; first compound 0.02 µM,0.685
same,relative viability,NCI-H1793; first compound 0.6325 µM,0.777
same,relative viability,NCI-H1793; first compound 2 µM,0.454
same,relative viability,NCI-H2085; first compound 0.02 µM,0.986
same,relative viability,NCI-H2085; first compound 0.2 µM,0.839
same,relative viability,NCI-H2085; first compound 0.6325 µM,0.751
same,relative viability,NCI-H2085; first compound 2 µM,0.668
same,relative viability,NCI-H2087; first compound 0.02 µM,1.07
same,relative viability,NCI-H2087; first compound 0.2 µM,0.874
same,relative viability,NCI-H2087; first compound 0.6325 µM,1.1
same,relative viability,NCI-H2087; first compound 2 µM,1.07
same,relative viability,NCI-H23; first compound 0.02 µM,0.825
same,relative viability,NCI-H23; first compound 0.2 µM,0.815
same,relative viability,NCI-H23; first compound 0.6325 µM,1
same,relative viability,NCI-H23; first compound 2 µM,0.545
same,relative viability,NCI-H3122; first compound 0.02 µM,0.927
same,relative viability,NCI-H3122; first compound 0.2 µM,0.891
same,relative viability,NCI-H3122; first compound 0.6325 µM,0.9
same,relative viability,NCI-H3122; first compound 2 µM,0.66
same,relative viability,NCI-H322M; first compound 0.02 µM,1.01
same,relative viability,NCI-H322M; first compound 0.2 µM,0.921
same,relative viability,NCI-H322M; first compound 0.6325 µM,0.826
same,relative viability,NCI-H322M; first compound 2 µM,0.403
same,relative viability,NCI-H358; first compound 0.02 µM,0.761
same,relative viability,NCI-H358; first compound 0.2 µM,0.534
same,relative viability,NCI-H358; first compound 0.6325 µM,0.421
same,relative viability,NCI-H358; first compound 2 µM,0.213
same,relative viability,NCI-H460; first compound 0.02 µM,1.02
same,relative viability,NCI-H460; first compound 0.2 µM,0.882
same,relative viability,NCI-H460; first compound 0.6325 µM,1.06
same,relative viability,NCI-H460; first compound 2 µM,0.867
same,relative viability,NCI-H596; first compound 0.02 µM,0.874
same,relative viability,NCI-H596; first compound 0.2 µM,0.641
same,relative viability,NCI-H596; first compound 0.6325 µM,0.826
same,relative viability,NCI-H596; first compound 2 µM,0.591
same,relative viability,NCI-H650; first compound 0.02 µM,0.996
same,relative viability,NCI-H650; first compound 0.2 µM,0.922
same,relative viability,NCI-H650; first compound 0.6325 µM,1.03
same,relative viability,NCI-H650; first compound 2 µM,1.03
same,relative viability,PC-3 [JPC-3]; first compound 0.02 µM,1.04
same,relative viability,PC-3 [JPC-3]; first compound 0.2 µM,0.889
same,relative viability,PC-3 [JPC-3]; first compound 0.6325 µM,0.693
same,relative viability,PC-3 [JPC-3]; first compound 2 µM,0.396
same,relative viability,SK-LU-1; first compound 0.02 µM,0.602
same,relative viability,SK-LU-1; first compound 0.2 µM,0.51
same,relative viability,SK-LU-1; first compound 0.6325 µM,0.415
same,relative viability,SK-LU-1; first compound 2 µM,0.298
CN1CCN(CCOc2cc(OC3CCOCC3)c3c(Nc4c(Cl)ccc5c4OCO5)ncnc3c2)CC1 [Saracatinib] + CS(=O)(=O)CCNCc1ccc(-c2ccc3ncnc(Nc4ccc(OCc5cccc(F)c5)c(Cl)c4)c3c2)o1 [Lapatinib] (partner 2 µM),relative viability,201T; first compound 0.02 µM,1
same,relative viability,201T; first compound 0.2 µM,0.856
same,relative viability,201T; first compound 0.6325 µM,0.998
same,relative viability,201T; first compound 2 µM,0.859
same,relative viability,COR-L23; first compound 0.02 µM,0.947
same,relative viability,COR-L23; first compound 0.2 µM,0.571
same,relative viability,COR-L23; first compound 0.6325 µM,1.1
same,relative viability,COR-L23; first compound 2 µM,0.897
same,relative viability,H3255; first compound 0.02 µM,0.27
same,relative viability,H3255; first compound 0.2 µM,0.241
same,relative viability,H3255; first compound 0.6325 µM,0.271
same,relative viability,H3255; first compound 2 µM,0.239
same,relative viability,HARA; first compound 0.02 µM,0.808
same,relative viability,HARA; first compound 0.6325 µM,1.1
same,relative viability,HARA; first compound 2 µM,0.442
same,relative viability,HCC-366; first compound 0.02 µM,1.02
same,relative viability,HCC-366; first compound 0.6325 µM,1.04
same,relative viability,HCC-366; first compound 2 µM,0.707
same,relative viability,HCC-78; first compound 0.02 µM,0.822
same,relative viability,HCC-78; first compound 0.2 µM,0.481
same,relative viability,HCC-78; first compound 0.6325 µM,0.686
same,relative viability,HCC-78; first compound 2 µM,0.778
same,relative viability,LU99A; first compound 0.02 µM,0.963
same,relative viability,LU99A; first compound 0.2 µM,0.748
same,relative viability,LU99A; first compound 0.6325 µM,0.969
same,relative viability,LU99A; first compound 2 µM,0.743
same,relative viability,NCI-H1650; first compound 0.02 µM,0.779
same,relative viability,NCI-H1650; first compound 0.2 µM,0.803
same,relative viability,NCI-H1650; first compound 0.6325 µM,0.573
same,relative viability,NCI-H1650; first compound 2 µM,0.47
same,relative viability,NCI-H1651; first compound 0.02 µM,0.92
same,relative viability,NCI-H1651; first compound 0.2 µM,0.678
same,relative viability,NCI-H1651; first compound 0.6325 µM,0.873
same,relative viability,NCI-H1651; first compound 2 µM,0.695
same,relative viability,NCI-H1755; first compound 0.02 µM,1.01
same,relative viability,NCI-H1755; first compound 0.2 µM,0.816
same,relative viability,NCI-H1755; first compound 0.6325 µM,1.1
same,relative viability,NCI-H1755; first compound 2 µM,0.965
same,relative viability,NCI-H1793; first compound 0.02 µM,0.894
same,relative viability,NCI-H1793; first compound 0.2 µM,0.587
same,relative viability,NCI-H1793; first compound 0.6325 µM,0.974
same,relative viability,NCI-H1793; first compound 2 µM,0.76
same,relative viability,NCI-H2085; first compound 0.02 µM,0.802
same,relative viability,NCI-H2085; first compound 0.2 µM,0.615
same,relative viability,NCI-H2085; first compound 0.6325 µM,0.811
same,relative viability,NCI-H2085; first compound 2 µM,0.725
same,relative viability,NCI-H2087; first compound 0.02 µM,1.1
same,relative viability,NCI-H2087; first compound 0.2 µM,1.03
same,relative viability,NCI-H2087; first compound 0.6325 µM,1.25
same,relative viability,NCI-H2087; first compound 2 µM,0.981
same,relative viability,NCI-H23; first compound 0.02 µM,1.13
same,relative viability,NCI-H23; first compound 0.6325 µM,1.28
same,relative viability,NCI-H23; first compound 2 µM,0.895
same,relative viability,NCI-H3122; first compound 0.02 µM,1.03
same,relative viability,NCI-H3122; first compound 0.6325 µM,0.894
same,relative viability,NCI-H3122; first compound 2 µM,0.781
same,relative viability,NCI-H322M; first compound 0.02 µM,0.639
same,relative viability,NCI-H322M; first compound 0.2 µM,0.607
same,relative viability,NCI-H322M; first compound 0.6325 µM,0.56
same,relative viability,NCI-H322M; first compound 2 µM,0.486
same,relative viability,NCI-H358; first compound 0.02 µM,0.471
same,relative viability,NCI-H358; first compound 0.2 µM,0.535
same,relative viability,NCI-H358; first compound 0.6325 µM,0.418
same,relative viability,NCI-H358; first compound 2 µM,0.384
same,relative viability,NCI-H460; first compound 0.02 µM,0.886
same,relative viability,NCI-H460; first compound 0.2 µM,0.682
same,relative viability,NCI-H460; first compound 0.6325 µM,0.799
same,relative viability,NCI-H460; first compound 2 µM,1.05
same,relative viability,NCI-H596; first compound 0.02 µM,1.02
same,relative viability,NCI-H596; first compound 0.2 µM,1.03
same,relative viability,NCI-H596; first compound 0.6325 µM,0.994
same,relative viability,NCI-H596; first compound 2 µM,0.796
same,relative viability,NCI-H650; first compound 0.02 µM,1
same,relative viability,NCI-H650; first compound 0.2 µM,0.85
same,relative viability,NCI-H650; first compound 0.6325 µM,0.928
same,relative viability,NCI-H650; first compound 2 µM,1.17
same,relative viability,PC-3 [JPC-3]; first compound 0.02 µM,0.439
same,relative viability,PC-3 [JPC-3]; first compound 0.2 µM,0.393
same,relative viability,PC-3 [JPC-3]; first compound 0.6325 µM,0.43
same,relative viability,PC-3 [JPC-3]; first compound 2 µM,0.402
same,relative viability,SK-LU-1; first compound 0.02 µM,0.818
same,relative viability,SK-LU-1; first compound 0.2 µM,0.572
same,relative viability,SK-LU-1; first compound 0.6325 µM,0.45
same,relative viability,SK-LU-1; first compound 2 µM,0.406
